From ChEMBL document CHEMBL3792356, “Discovery of molluscicidal and cercaricidal activities of 3-substituted quinazolinone derivatives by a scaffold hopping approach using a pseudo-ring based on the intramolecular hydrogen bond formation” (Eur J Med Chem, 2016)
Converted amounts (≈) assume the structure as drawn.

Columns and labels:
Oncomelania hupensis = test: Molluscicidal activity against Oncomelania hupensis measured after 24 hrs; format: functional; details: for LC50: Oncomelania hupensis, 24 h
Schistosoma japonicum = test: Cercaricidal activity against Schistosoma japonicum infected in Oncomelania hupensis measured after 120 mins by colour television microscopy; format: functional; details: for LC50: Schistosoma japonicum, 2 h

| SMILES | LC90 (Oncomelania hupensis) [ppm] | LC50 (Oncomelania hupensis) [µg/mL] | LC90 (Schistosoma japonicum) [ppm] | LC50 (Schistosoma japonicum) [µg/mL] |
| --- | --- | --- | --- | --- |
| Cc1ccc(-n2cnc3c(Cl)cc(Cl)cc3c2=O)cc1 | 6.21 | 4.71 (≈ 15.4 µM) | 1.57 | 1.19 (≈ 3.9 µM) |
| Cc1ccc(-n2cnc3ccc(Cl)cc3c2=O)c(C)c1 | 5.75 | 4.36 (≈ 15.3 µM) | 1.45 | 1.1 (≈ 3.86 µM) |
| O=c1c2cc(Cl)cc(Cl)c2ncn1-c1ccccc1 | 8.71 | 6.61 (≈ 22.7 µM) | 2.19 | 1.66 (≈ 5.7 µM) |
| COc1ccc(-n2cnc3c(Cl)cc(Cl)cc3c2=O)cc1 | 13.18 | 10 (≈ 31.1 µM) | 3.31 | 2.51 (≈ 7.82 µM) |
| Cc1ccc(-n2cnc3ccc([N+](=O)[O-])cc3c2=O)cc1 | 7.58 | 5.75 (≈ 20.4 µM) | 1.91 | 1.45 (≈ 5.16 µM) |
| CCCn1cnc2ccc(Cl)cc2c1=O | >100 | > 100 | >50 | > 50 |
| COc1cc(-n2cnc3ccc([N+](=O)[O-])cc3c2=O)cc(OC)c1OC | 6.61 | 5.01 (≈ 14 µM) | 1.66 | 1.26 (≈ 3.53 µM) |
| Cc1ccc(-n2cnc3c(Cl)cc(Cl)cc3c2=O)c(C)c1 | 7.08 | 5.37 (≈ 16.8 µM) | 1.78 | 1.35 (≈ 4.23 µM) |
| O=c1c2cc([N+](=O)[O-])ccc2ncn1-c1ccccc1 | 9.33 | 7.07 (≈ 26.5 µM) | 2.34 | 1.78 (≈ 6.66 µM) |
| CN(C)c1ccc(-n2cnc3c(Cl)cc(Cl)cc3c2=O)cc1 | 8.13 | 6.17 (≈ 18.5 µM) | 2.04 | 1.55 (≈ 4.64 µM) |
